# Key:
# [1] = system: isolated bovine brain microvessels; assay: Radioreceptor assay (uptake) using isolated bovine brain microvessels; format: cell-based; details: up to 60 minutes incubation at room temperature; FIG. 1
# Protocol: Somatostatin was obtained from Peninsula Laboratories and tritiated by reductive methylation using ^3 H-sodium borohydride. […] The two compounds were coupled together using SPDP as described in Example 1. Bovine brain microvessels were isolated as described in Pardridge, et al., "Rapid Sequestration And Degradation Of Somatostatin Analogues By Isolated Brain Microvessels", (Journal of Neurochemistry, Vol. 44, No. 4, 1985, pp. 1178-1184).
# ^3 H-somatostatin was added to one set of microvessels for up to 60 minutes incubation at room temperature. In another set of incubations, the ^3 H-somatostatin-^125 I-insulin chimera was also added. […] The uptake of the free somatostatin likely represents nonspecific binding as described in the article mentioned above (Journal of Neurochemistry, Vol. 44, No. 4, 1985).
# Previous studies have shown that the receptor-mediated endocytosis of peptides in the isolated brain microvessels is a reliable index of the in vivo blood-brain barrier receptor transport activity of peptides in vivo (see my previously-mentioned article in Endocrine Reviews, Vol. 7, No. 3, Aug. 1986).
# [2] = system: blood-brain barrier; details: general statement, no test described; cited from earlier work
Molecule,change of uptake with time [1],transport through the blood-brain barrier [2]
C[C@H](N)C(=O)NCC(=O)N[C@H]1CSSC[C@@H](C(=O)O)NC(=O)[C@H](CO)NC(=O)[C@H]([C@@H](C)O)NC(=O)[C@H](Cc2ccccc2)NC(=O)[C@H]([C@@H](C)O)NC(=O)[C@H](CCCCN)NC(=O)[C@H](Cc2c[nH]c3ccccc23)NC(=O)[C@H](Cc2ccccc2)NC(=O)[C@H](Cc2ccccc2)NC(=O)[C@H](CC(N)=O)NC(=O)[C@H](CCCCN)NC1=O [somatostatin],no increase in time,not transported
cationized albumin: bovine serum albumin covalently coupled with hexamethylene-diamine,–,enters the brain rapidly

# From patent US4902505A, “Chimeric peptides for neuropeptide delivery through the blood-brain barrier” (Alkermes, priority 1988, dated 1990)
